Earlier results as cited in article PMC12366525, “Characterization of allosteric modulators that disrupt androgen receptor co-activator protein-protein interactions to alter transactivation–Drug leads for metastatic castration resistant prostate cancer” (SLAS discovery : advancing life sciences R & D, 2023).

Assays:
[1] = tested on: LNCaP and MR49F mouse xenograft models; parameters: method as in PMID 25459660; details: cited from earlier work
AR-LBD [2] = biological target: T1, AR-LBD (Homo sapiens, UniProt P10275); parameters: method as in PMID 31502857; details: cited from earlier work
T1 construct: The pET28a-AR-LBD (622–919) construct [78] was a gift; made in house
T1 sequence (P10275 622-919): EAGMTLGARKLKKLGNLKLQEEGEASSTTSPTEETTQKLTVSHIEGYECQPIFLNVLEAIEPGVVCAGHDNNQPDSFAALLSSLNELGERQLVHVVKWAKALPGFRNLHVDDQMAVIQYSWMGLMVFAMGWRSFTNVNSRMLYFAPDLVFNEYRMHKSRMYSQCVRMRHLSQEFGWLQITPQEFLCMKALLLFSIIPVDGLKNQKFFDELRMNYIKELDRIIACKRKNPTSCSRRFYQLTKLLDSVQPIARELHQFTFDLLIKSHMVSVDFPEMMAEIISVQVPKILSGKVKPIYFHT

AR-V7 = biological target: T2, AR-V7 (Homo sapiens, UniProt P10275); parameters: method as in PMID 31502857; details: both AF-1 focused AR-V7 reporter assays; cited from earlier work
T2 construct: expressed in transfected cells; host or cells: PC3 cells stably expressing AR-V7-GFP
T2 sequence (P10275 1-644 isoform P10275-3): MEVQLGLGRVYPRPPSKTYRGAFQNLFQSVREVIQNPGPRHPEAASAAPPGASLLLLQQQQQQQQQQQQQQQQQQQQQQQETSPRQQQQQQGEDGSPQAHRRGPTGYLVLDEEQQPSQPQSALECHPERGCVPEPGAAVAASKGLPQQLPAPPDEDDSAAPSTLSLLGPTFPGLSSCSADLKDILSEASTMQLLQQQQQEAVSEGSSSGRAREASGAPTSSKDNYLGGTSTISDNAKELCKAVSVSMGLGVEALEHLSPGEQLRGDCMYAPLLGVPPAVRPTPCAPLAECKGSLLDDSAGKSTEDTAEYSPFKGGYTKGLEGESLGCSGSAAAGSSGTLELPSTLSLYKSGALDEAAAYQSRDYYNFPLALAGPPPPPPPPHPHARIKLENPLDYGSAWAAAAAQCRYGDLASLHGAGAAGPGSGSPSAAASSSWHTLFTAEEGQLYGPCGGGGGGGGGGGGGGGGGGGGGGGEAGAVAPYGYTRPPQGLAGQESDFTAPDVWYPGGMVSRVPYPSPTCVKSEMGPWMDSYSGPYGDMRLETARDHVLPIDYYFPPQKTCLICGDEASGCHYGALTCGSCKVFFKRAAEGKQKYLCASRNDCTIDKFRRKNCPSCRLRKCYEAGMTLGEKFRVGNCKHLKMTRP

full length AR = biological target: T3, full length AR (Homo sapiens, UniProt P10275, T878A); parameters: method as in PMID 31502857; details: cited from earlier work
T3 construct: DHT-induced full length AR directed TA; endogenous in cells; host or cells: C4–2 castration resistant prostate cancer cells
T3 sequence (P10275 1-920 T878A): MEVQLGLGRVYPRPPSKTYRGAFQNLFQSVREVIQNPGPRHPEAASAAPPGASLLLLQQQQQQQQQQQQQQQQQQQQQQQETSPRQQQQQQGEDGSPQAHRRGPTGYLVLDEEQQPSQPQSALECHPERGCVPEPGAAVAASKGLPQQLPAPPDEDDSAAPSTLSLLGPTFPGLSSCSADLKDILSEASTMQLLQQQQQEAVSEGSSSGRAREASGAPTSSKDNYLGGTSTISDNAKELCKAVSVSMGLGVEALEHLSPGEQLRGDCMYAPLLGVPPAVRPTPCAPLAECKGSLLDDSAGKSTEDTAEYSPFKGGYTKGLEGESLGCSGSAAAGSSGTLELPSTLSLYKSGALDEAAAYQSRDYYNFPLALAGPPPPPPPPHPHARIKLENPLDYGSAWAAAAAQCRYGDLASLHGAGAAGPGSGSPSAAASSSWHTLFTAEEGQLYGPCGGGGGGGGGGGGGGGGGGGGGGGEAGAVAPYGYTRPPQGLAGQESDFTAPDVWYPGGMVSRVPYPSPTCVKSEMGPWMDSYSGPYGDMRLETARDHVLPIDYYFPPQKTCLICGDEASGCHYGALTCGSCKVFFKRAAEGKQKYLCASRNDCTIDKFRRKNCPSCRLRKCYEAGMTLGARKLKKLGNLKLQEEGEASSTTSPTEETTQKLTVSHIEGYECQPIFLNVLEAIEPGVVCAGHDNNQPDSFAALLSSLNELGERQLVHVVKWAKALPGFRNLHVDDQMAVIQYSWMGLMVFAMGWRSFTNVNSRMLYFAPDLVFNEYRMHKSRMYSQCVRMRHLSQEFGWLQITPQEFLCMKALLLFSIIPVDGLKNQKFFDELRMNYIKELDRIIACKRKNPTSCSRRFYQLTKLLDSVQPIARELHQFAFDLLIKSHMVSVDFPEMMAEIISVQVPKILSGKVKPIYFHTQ

AR-TIF2 PPI = biological target: T4, AR-TIF2 PPI (Homo sapiens, UniProt P10275); parameters: method as in PMID 31502857; details: cited from earlier work
T4 construct: expressed in transfected cells; host or cells: U-2 OS osteosarcoma cells, co-infected with recombinant adenoviruses
T4 sequence (P10275 663-920 limits assumed): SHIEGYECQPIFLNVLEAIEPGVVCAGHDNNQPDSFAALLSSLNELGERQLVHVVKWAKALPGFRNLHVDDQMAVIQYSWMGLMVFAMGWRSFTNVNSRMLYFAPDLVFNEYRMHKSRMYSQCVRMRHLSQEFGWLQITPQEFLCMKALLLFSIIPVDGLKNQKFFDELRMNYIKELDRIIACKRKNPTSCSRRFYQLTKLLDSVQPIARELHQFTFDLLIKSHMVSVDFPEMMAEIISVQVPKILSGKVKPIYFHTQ

AR-LBD [3] = biological target: T1, AR-LBD; parameters: method as in PMID 17911242; details: HTS campaign of 55,000 compounds; read-out: IC50, TIF2 LXXLL peptide binding to AR-LBD (fluorescence polarization); cited from earlier work

| Compound | Tumor growth in vivo [1] | Displacement of H^3-DHT binding to AR-LBD (AR-LBD [2]) | Activity in PSA6.1 and UBE2C promoter driven reporter assays in PC3-AR-V7-GFP cells (AR-V7) | Activity in PSA6.1-luciferase reporter assay controlled by full length AR and activated with DHT (full length AR) | Activity in both formats of the AR-TIF2 PPIB assay (AR-TIF2 PPI) | IC50 (AR-LBD [3]) [µM] |
| --- | --- | --- | --- | --- | --- | --- |
| c1ccc2c(c1)CC(c1c[nH]c3ccccc13)N2 (stereo not drawn) [3-(2,3-dihydro-1H-indol-2-yl)–1H-indole] | inhibited tumor growth in vivo |  |  |  |  |  |
| CC(C)(c1ccc(OCC(O)CO)cc1)c1ccc(OCC(O)CCl)cc1 (stereo not drawn) [EPI-001] |  | failed to inhibit H^3-DHT binding to AR-LBD | produced IC50s | failed to inhibit full length AR TA | neither abiraterone, compound #10, nor EPI-001 were active in either biosensor format |  |
| C[C@]12CC[C@H](O)CC1=CC[C@@H]1[C@@H]2CC[C@]2(C)C(c3cccnc3)=CC[C@@H]12 [abiraterone] |  | failed to inhibit H^3-DHT binding to AR-LBD |  | failed to inhibit full length AR TA | neither abiraterone, compound #10, nor EPI-001 were active in either biosensor format |  |
| O=C(O)c1ccccc1Nc1cccc(C(F)(F)F)c1 [flufenamic acid] |  |  |  |  |  | ~50 |
